Like-named read-outs stand apart in the source and are kept apart here. Marks after values point to notes of the source that are not given here.
Key:
[1] = Acute toxicity / acute tolerance after i.v. injection in mice (Experiment A); format: in vivo, mice (male and female SPF-mice, stock NMRI); details: mouse, in vivo, iv; for mortality at 336 h: N-methyl glucamine salt, 14 days observation, read-out: death rate %; for LD50 at 336 h: i.v., given as N-methyl glucamine salt, expressed as Compound, read-out: DL50, converted to the free compound
Experimental: (§1) The acute toxicity of the compounds of the invention was tested on mice, and since the substances are substantially nontoxic after oral administration, the acute tolerance of the two Compounds B and C in their methyl glucamine salts form was determined after i.v. injection. This form of preparation was also chosen for the pharmacological measurement of the antiphalloidine effect.
(§2) Experimental animals were male and female SPF-mice, stock NMRI, of the firm of Voss, Tuttlingen, Germany, having a weight of about 25-30 g. each. All animals were housed under identical conditions and were given "Sniff" standard food and drinking water ad libitum. The mice were administered the dosages once in 20 ml 0.9% NaCl+4% PVP/kg i.v. at an injection rate of approximately 1 ml/min. The observation time was 14 days.
(§3) 1. Compound B as N-methyl glucamine salt.
(§4) 2. Compound C as N-methyl glucamine salt.
(§5) 3. Polyvinyl pyrrolidone (PVP) of Fluka, mol. wt.~10,000 stock solution: 4% PVP dissolved in 0.9% NaCl.

mice = experiment: as above; format: in vivo, mice (male and female SPF-mice, stock NMRI); details: for death rate/No. / death rate %: 14 days observation; for death rate/day, 2nd: 2nd day; for death rate/day, 3rd: 3rd day; for death rate/day, 1st: 1st day; for acute symptoms of non-tolerance: mice; for DL50, converted to the free compound: given as N-methyl glucamine salt, expressed as Compound
Experimental: as §1, §2, §3, §4, §5

[2] = system: phalloidine-induced damage to the liver; experiment: Anti-phalloidine effect: serum enzymes GOT and GPT (Experiment C); format: in vivo, mice (female SPF-mice, stock NMRI); details: 140.5 mg/kg i.v. as N-methyl glucamine salt 1 hour before phalloidine 1.5 mg/kg i.p.
Experimental: As an additional pharmacological measurement, the antiphalloidine effect of Compound C as its N-methyl glucamine salt i.v. was subsequently determined.
1.5 mg phalloidine, predissolved in 3 ml methanol ad 20 ml
Experimental animals were female SPF-mice, stock NMRI, of the firm of Voss, Tuttlingen, having a weight of about 25 g. All animals were housed under identical conditions and were given "Ssniff" standard food and drinking water ad libitum. Compound C as its N-methyl glucamine salt was injected in a dosage of 140.5 mg/kg i.v. 1 hour before the phalloidine poisoning (1.5 mg/kg i.p.). The control animals received 40.5 mg/kg N-methyl glucamine salt i.v. after a period of 24 hours subsequent to the damage to the liver, blood was taken from the mice from the retroorbital venae plexus for the determination of the serum enzymes GOT and GPT.

[3] = system: liver damage induced by phalloidine; experiment: Anti-phalloidine effect: death rate and survival time after phalloidine poisoning (Experiment B); format: in vivo, mice (male and female, homebred strain, stock Garvens); details: 140.5 mg/kg i.v. as N-methyl glucamine salt 1 hour before phalloidine 3 mg/kg i.p.
Experimental: The liver-protective effect of the compounds B and C according to the invention in the form of their water-soluble N-methyl glucamine salts was tested on mice by antagonizing liver damage induced by phalloidine with treatment using the compounds of the invention.
140.5 mg of Compound B/25 ml 0.9% NaCl+4% PVP/kg i.v.
40.5 mg MG/25 ml 0.9% NaCl+4% PVP/[…] i.v.
Phalloidine, predissolved in 3 ml methanol to 20 ml 0.9%
Experimental animals were male and female mice of a homebred strain, stock Garvens, having a weight of about 20-25 g. All animals were housed under identical conditions and were given "Ssniff" standard food and drinking water ad libitum.
Compound B as its N-methyl glucamine salt was injected in a dosage of 140.5 mg/kg i.v. 1 hour prior to administration of phalloidine at 3 mg/kg i.p. (to induce damage to the liver). The control animals received 40.5 mg/kg N-methyl glucamine salt i.v. The death rate and survival time after the phalloidine poisoning were registered. The observation time was 7 days.

[4] = female mice, 424.3 mg/kg i.v., N-methyl glucamine salt
[5] = female mice, 504.6 mg/kg i.v., N-methyl glucamine salt
[6] = female mice, 600 mg/kg i.v., N-methyl glucamine salt
[7] = male mice, 424.3 mg/kg i.v., N-methyl glucamine salt
[8] = male mice, 504.6 mg/kg i.v., N-methyl glucamine salt
[9] = male mice, 600 mg/kg i.v., N-methyl glucamine salt
[10] = female mice, 570 mg/kg i.v., N-methyl glucamine salt
[11] = female mice, 680 mg/kg i.v., N-methyl glucamine salt
[12] = female mice, 800 mg/kg i.v., N-methyl glucamine salt
[13] = female mice, 960 mg/kg i.v., N-methyl glucamine salt
[14] = male mice, 425 mg/kg i.v., N-methyl glucamine salt
[15] = male mice, 714.1 mg/kg i.v., N-methyl glucamine salt
[16] = male mice, 850 mg/kg i.v., N-methyl glucamine salt
[17] = male mice, 1200 mg/kg i.v., N-methyl glucamine salt
[18] = male mice, 1700 mg/kg i.v., N-methyl glucamine salt

COc1cc(C2Oc3c(O)cc(CC(=O)C(=O)c4c(O)cc(O)cc4O)cc3C2CO)ccc1O (stereo not drawn) [Compound C]
mortality at 336 h ([1]; 300 mg/kg, female mice, 300 mg/kg i.v.): 0% | mortality at 336 h ([1]; 300 mg/kg, male mice, 300 mg/kg i.v.): 0% | mortality at 336 h ([1]; 424.3 mg/kg, female mice, 424.3 mg/kg i.v.): 80% | mortality at 336 h ([1]; 424.3 mg/kg, male mice, 424.3 mg/kg i.v.): 40% | mortality at 336 h ([1]; 504.6 mg/kg, female mice, 504.6 mg/kg i.v.): 100% | mortality at 336 h ([1]; 504.6 mg/kg, male mice, 504.6 mg/kg i.v.): 100% | mortality at 336 h ([1]; 600 mg/kg, female mice, 600 mg/kg i.v.): 100% | mortality at 336 h ([1]; 600 mg/kg, male mice, 600 mg/kg i.v.): 100% | LD50 at 336 h ([1]; female mice): 274 mg/kg | LD50 at 336 h ([1]; male mice): 295 mg/kg | death rate/No. (mice; female mice, 300 mg/kg i.v., N-methyl glucamine salt): 0/10 | death rate/day, 2nd (mice; [4]): 1 | death rate/day, 3rd (mice; [4]): 5 | death rate/day, 4th (mice; female mice, 424.3 mg/kg i.v., N-methyl glucamine salt, 4th day): 2 | death rate/No. (mice; [4]): 8/10 | death rate/day, 1st (mice; [5]): 5 | death rate/No. (mice; [5]): 5/5 | death rate/day, 1st (mice; [6]): 5 | death rate/No. (mice; [6]): 5/5 | death rate/No. (mice; male mice, 300 mg/kg i.v., N-methyl glucamine salt): 0/10 | death rate/day, 2nd (mice; [7]): 3 | death rate/day, 3rd (mice; [7]): 1 | death rate/No. (mice; [7]): 4/10 | death rate/day, 1st (mice; [8]): 5 | death rate/No. (mice; [8]): 5/5 | death rate/day, 1st (mice; [9]): 5 | death rate/No. (mice; [9]): 5/5 | acute symptoms of non-tolerance (mice; i.v., N-methyl glucamine salt): accelerated respiration, laying on their side, and clonic tonic cramps before death actually occurred | damage to the liver, measured by the increase of serum enzymes GOT and GPT [2]: entirely prevented | GPT in the serum ([2]; female mice, 24 hours after, control 667.4±324.6): 13.4±0.9 mU/ml | GOT in the serum ([2]; female mice, 24 hours after, control 1489.2±904.7): 38.7±2.9 mU/ml

COc1cc(C2Oc3cc(CC(=O)C(=O)c4c(O)cc(O)cc4O)ccc3OC2CO)ccc1O (stereo not drawn) [Compound B]
death rate % (mice; [10]): 0% | death rate/No. (mice; [10]): 0/10 | death rate/day, 1st (mice; [11]): 1 | death rate % (mice; [11]): 10% | death rate/No. (mice; [11]): 1/10 | survival time span (mice; female mice, 680 mg/kg i.v., N-methyl glucamine salt, ' = minutes, ^h = hours): ~23^h minutes-hours | death rate/day, 1st (mice; [12]): 3 | death rate % (mice; [12]): 30% | death rate/No. (mice; [12]): 3/10 | death rate/day, 1st (mice; [13]): 7 | death rate % (mice; [13]): 70% | death rate/No. (mice; [13]): 7/10 | DL50, converted to the free compound (mice; female mice, i.v., 20160 min): 604.98 mg/kg | death rate % (mice; [14]): 0% | death rate/No. (mice; [14]): 0/5 | death rate % (mice; [9]): 0% | death rate/No. (mice; [9]): 0/10 | death rate/day, 1st (mice; [15]): 1 | death rate/day, 3rd (mice; [15]): 2 | death rate % (mice; [15]): 30% | death rate/No. (mice; [15]): 3/10 | death rate/day, 1st (mice; [16]): 8 | death rate % (mice; [16]): 80% | death rate/No. (mice; [16]): 8/10 | death rate/day, 1st (mice; [17]): 5 | death rate % (mice; [17]): 100% | death rate/No. (mice; [17]): 5/5 | death rate/day, 1st (mice; [18]): 3 | death rate % (mice; [18]): 100% | death rate/No. (mice; [18]): 3/3 | DL50 (mice; male mice, i.v., dose as N-methyl glucamine salt, 20160 min): 820 ± 34 mg/kg | DL50, converted to the free compound (mice; male mice, i.v., 20160 min): 583.63 mg/kg | acute symptoms of non-tolerance (mice; i.v., N-methyl glucamine salt): accelerated respiration, laying on their side, and clonic tonic cramps before death actually occurred | phalloidine poisoning (DL80) measured by death rate and survival time [3]: prevented | death rate ([3]; male and female mice, 7 days, control 80%): 0%

From patent publication US4168318A, “1-(2,4,6-Trihydroxyphenyl)-propanedione-(1,2)-compounds and therapeutic compositions” (priority 1974, dated 1979)
